PubChem BioAssay AID256 (DTP/NCI, 2004)
Several values for one entry are separate records, joined by “and”; a condition that tells them apart may be missing. Identical values can stand only once. Inconclusive results and toxic doses are left out. How the source made its calls: active means survival T/C of 150% or more; inactive means T/C below 125% in these data.

Tested on: CD2F1 mice, L1210 leukemia ip, survival T/C
Test: NCI In Vivo Anticancer Drug Screen. Data for tumor model L1210 Leukemia (intraperitoneal) in CD2F1 (CDF1) mice
Details: endpoint: mean survival time, higher = longer survival
How it was run: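 Each value reflects a quotient of treated over vehicle control outcomes in mice with a transplanted tumor.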

[1] = dose: 100.0 mg/kg/injection, schedule: Q01DX001 (ip), vehicle: saline
[2] = dose: 200.0 mg/kg/injection, schedule: Q01DX001 (ip), vehicle: saline
[3] = dose: 400.0 mg/kg/injection, schedule: Q01DX001 (ip), vehicle: saline

Measured: T/C

N#C/C(=C\c1cccc(OCc2ccccc2)c1)c1ccc([N+](=O)[O-])cc1
inactive: dose: 6.25 mg/kg/injection, schedule: Q04DX003 (ip), vehicle: saline 98 % of control | dose: 12.5 mg/kg/injection, schedule: Q04DX003 (ip), vehicle: saline 98 % of control | dose: 25.0 mg/kg/injection, schedule: Q04DX003 (ip), vehicle: saline 102 % of control

CC[N-]c1nncs1.CC[N-]c1nncs1.CC[N-]c1nncs1.CC[N-]c1nncs1.[Cl][Rh][Cl]
inactive: dose: 3.13 mg/kg/injection, schedule: Q04DX003 (ip), vehicle: distilled water + Tween-80 104 % of control | dose: 6.25 mg/kg/injection, schedule: Q04DX003 (ip), vehicle: distilled water + Tween-80 98 % of control | dose: 12.5 mg/kg/injection, schedule: Q04DX003 (ip), vehicle: distilled water + Tween-80 96 % of control | dose: 25.0 mg/kg/injection, schedule: Q04DX003 (ip), vehicle: distilled water + Tween-80 90 % of control | dose: 50.0 mg/kg/injection, schedule: Q04DX003 (ip), vehicle: distilled water + Tween-80 98 % of control

O=C1C2C(c3ccccc3)=C(c3ccccc3)C1C1(c3ccccc3)C(c3ccccc3)=CC(=O)C21 (centres undefined)
inactive: dose: 100.0 mg/kg/injection, schedule: Q01DX001 (ip), vehicle: Klucel (hydroxypropylcellulose) (HPC) 89 % of control | dose: 200.0 mg/kg/injection, schedule: Q01DX001 (ip), vehicle: Klucel (hydroxypropylcellulose) (HPC) 93 % of control | dose: 400.0 mg/kg/injection, schedule: Q01DX001 (ip), vehicle: Klucel (hydroxypropylcellulose) (HPC) 93 % of control

O=c1[nH]c2ccc(Br)cc2c(=O)o1
inactive: dose: 100.0 mg/kg/injection, schedule: Q01DX009 (ip), vehicle: saline 104 % of control | dose: 200.0 mg/kg/injection, schedule: Q01DX009 (ip), vehicle: saline 116 % of control | dose: 400.0 mg/kg/injection, schedule: Q01DX009 (ip), vehicle: saline 108 % of control

O=C(O)/C(=C\c1cccc([N+](=O)[O-])c1)c1ccccc1
inactive: dose: 100.0 mg/kg/injection, schedule: Q01DX001 (ip), vehicle: saline with Tween-80 97 % of control | dose: 100.0 mg/kg/injection, schedule: Q01DX009 (ip), vehicle: saline with Tween-80 91 % of control and 107 % of control | dose: 100.0 mg/kg/injection, schedule: Q04DX002 (ip), vehicle: saline with Tween-80 100 % of control and 105 % of control | dose: 100.0 mg/kg/injection, schedule: Q04DX003 (ip), vehicle: saline with Tween-80 100 % of control | dose: 200.0 mg/kg/injection, schedule: Q01DX001 (ip), vehicle: saline with Tween-80 96 % of control | dose: 200.0 mg/kg/injection, schedule: Q01DX009 (ip), vehicle: saline with Tween-80 93 % of control | dose: 200.0 mg/kg/injection, schedule: Q04DX002 (ip), vehicle: saline with Tween-80 101 % of control and 103 % of control | dose: 200.0 mg/kg/injection, schedule: Q04DX003 (ip), vehicle: saline with Tween-80 100 % of control | dose: 400.0 mg/kg/injection, schedule: Q04DX002 (ip), vehicle: saline with Tween-80 90 % of control and 92 % of control | dose: 400.0 mg/kg/injection, schedule: Q04DX003 (ip), vehicle: saline with Tween-80 100 % of control

CC1CC(C(=O)O)C(S(N)(=O)=O)C1 (centres undefined)
inactive: dose: 50.0 mg/kg/injection, schedule: Q04DX002 (ip), vehicle: saline 97 % of control | dose: 100.0 mg/kg/injection, schedule: Q04DX002 (ip), vehicle: saline 108 % of control | dose: 200.0 mg/kg/injection, schedule: Q04DX002 (ip), vehicle: saline 108 % of control

CCN(CC)C(=S)SCn1ncc2ccc([N+](=O)[O-])cc21
inactive: [1] 95 % of control | [2] 92 % of control | [3] 89 % of control

COC1N(C2CC(O)C(CO)O2)C(=O)NC(=O)C1(F)Br (centres undefined)
inactive: dose: 1.56 mg/kg/injection, schedule: Q01DX009 (ip), vehicle: saline 97 % of control and 108 % of control | dose: 3.12 mg/kg/injection, schedule: Q01DX009 (ip), vehicle: saline 115 % of control and 117 % of control | dose: 6.25 mg/kg/injection, schedule: Q01DX009 (ip), vehicle: saline 112 % of control | dose: 12.5 mg/kg/injection, schedule: Q01DX009 (ip), vehicle: saline 109 % of control | dose: 100.0 mg/kg/injection, schedule: Q04DX003 (ip), vehicle: saline 110 % of control | dose: 200.0 mg/kg/injection, schedule: Q04DX003 (ip), vehicle: saline 122 % of control

O=C(COc1ccc(S[N+](=O)[O-])cc1)c1ccccc1
inactive: [1] 105 % of control | [2] 103 % of control | [3] 94 % of control
